Reference: ChEMBL document CHEMBL5137064, “Therapeutic Potential and Activity Modulation of the Protein Lysine Deacylase Sirtuin 5” (J Med Chem, 2022)

Assays:
[1] = Cytotoxicity against human PDAC cells assessed as cell viability; format: functional, cell-based
[2] = molecular target: T1, NAD-dependent protein deacetylase sirtuin-2 (Homo sapiens, UniProt Q8IXJ6); assay: Inhibition of recombinant SIRT2 (unknown origin) using […] as substrate incubated for 4 hrs by homogenous fluorescent deacetylase assay
T1 sequence (Q8IXJ6 whole entry): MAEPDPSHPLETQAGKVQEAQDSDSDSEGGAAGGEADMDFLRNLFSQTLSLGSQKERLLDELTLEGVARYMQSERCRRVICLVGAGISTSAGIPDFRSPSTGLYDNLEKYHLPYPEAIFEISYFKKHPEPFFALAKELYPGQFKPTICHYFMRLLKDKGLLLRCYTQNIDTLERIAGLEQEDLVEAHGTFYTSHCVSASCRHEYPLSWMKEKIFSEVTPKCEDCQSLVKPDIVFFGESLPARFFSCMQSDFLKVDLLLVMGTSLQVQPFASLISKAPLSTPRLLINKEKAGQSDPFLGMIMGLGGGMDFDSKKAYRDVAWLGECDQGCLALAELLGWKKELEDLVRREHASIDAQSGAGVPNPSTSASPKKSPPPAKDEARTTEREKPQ

SMILES | IC50 [1] [µM] | IC50 [2] [µM]
CCOC(=O)C1=CN(C(=O)c2ccccc2)C=C(C(=O)OCC)C1c1cccc(OC)c1 | 25.4 | 
Cc1ccc(C(=O)Nc2ccc(S(=O)(=O)O)c3cc(S(=O)(=O)O)cc(S(=O)(=O)O)c23)cc1NC(=O)c1cccc(NC(=O)Nc2cccc(C(=O)Nc3cc(C(=O)Nc4ccc(S(=O)(=O)O)c5cc(S(=O)(=O)O)cc(S(=O)(=O)O)c45)ccc3C)c2)c1 [SURAMIN] |  | 1.15
